Test results from ChEMBL document CHEMBL1124518, “Nonsteroidal cardiotonics. 2. The inotropic activity of linear, tricyclic 5-6-5 fused heterocycles” (1989).

Columns and labels:
[1] = organism: Felis catus; test: Effective dose required to produce an increase in dP/dt5 by 1500 mmHg/s in cats; type: functional
[2] = system: Felis catus; test: Maximum increase in dP/dt when administered intravenously in cats at 0.3 mg/kg dose.; type: functional; conditions: route intravenous
[3] = system: Rattus norvegicus; test: Maximum increase in dP/dt when administered intravenously in rats at 10 mg/kg dose.; type: functional; design: unit not given here; conditions: route intravenous
[4] = organism: Rattus norvegicus; test: Effective dose required to produce an increase in dP/dt5 by 1500 mmHg/s in rats; type: functional
[5] = system: Canis familiaris; test: Maximum increase in dP/dt60 when administered orally in dogs at dose 0.3 mg/kg; type: functional, Canis lupus familiaris; conditions: route oral
[6] = system: Canis familiaris; test: Time after which maximum increase in contractility was observed when administered orally in conscious dogs at 1 mg/kg; type: functional, Canis lupus familiaris; conditions: route oral
[7] = system: Canis familiaris; test: Amount of time during which increase in administered orally in conscious dogs at 0.3 mg/kg; type: functional, Canis lupus familiaris; conditions: route oral

SMILES | ED1.5 [1] [mg/kg] | Max [2] [mHg/s] | Max [3] | ED1.5 [4] [mg/kg] | Max [5] [mmHg s-1] | Time [6] [min] | Duration [7] [h]
CC1(C)C(=O)Nc2cc3[nH]c(-c4cnccn4)nc3cc21 | 0.04 | 2.7 | 2.6 | 0.1 | – | – | –
CC1(C)C(=O)Nc2ccc(C3=NNC(=O)CC3)cc21 [INDOLIDAN] | – | – | – | – | 2.8 | 45 | > 6
